# Data: PMC8210147, “Characterization of the MurT/GatD complex in Mycobacterium tuberculosis towards validating a novel anti-tubercular drug target” (JAC-Antimicrobial Resistance, 2021)
# Target: Rv3712 (mycobacterial MurT) (Mycobacterium tuberculosis, UniProt I6Y4C7)
# Sequence (I6Y4C7 entry or part of it): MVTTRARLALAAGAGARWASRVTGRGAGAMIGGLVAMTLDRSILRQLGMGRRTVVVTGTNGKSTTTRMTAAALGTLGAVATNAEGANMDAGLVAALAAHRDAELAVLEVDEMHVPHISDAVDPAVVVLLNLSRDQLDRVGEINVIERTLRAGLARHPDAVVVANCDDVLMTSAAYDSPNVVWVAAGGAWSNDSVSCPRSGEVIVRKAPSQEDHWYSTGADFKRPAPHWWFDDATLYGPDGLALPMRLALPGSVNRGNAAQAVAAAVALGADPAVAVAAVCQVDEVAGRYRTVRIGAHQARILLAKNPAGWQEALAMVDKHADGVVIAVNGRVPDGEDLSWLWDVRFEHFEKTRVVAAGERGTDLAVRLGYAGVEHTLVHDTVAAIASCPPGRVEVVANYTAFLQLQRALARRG
smiles,measurement,value
Nc1ncnc2c1ncn2[C@@H]1O[C@H](COP(=O)(O)OP(=O)(O)OP(=O)(O)O)[C@@H](O)[C@H]1O [ATP],"inorganic phosphate release (PiColorLock Gold), 30 min",Rv3712 was found to be an ATPase
